Some results are limits rather than exact numbers.

Results on six molecules are retold here after ChEMBL document CHEMBL3882728, “Amino-substituted quinazoline derivatives as inhibitors of Beta-catenin/TCF-4 pathway and cancer treatment agents” (2009).

A short description of this assay: Cytotoxicity against human SV5A8 cells expressing SV40 binding sites driving firefly/renilla luciferase reporter gene after 24 hrs by luminometer. It counts as cell-based. The settings on record: SV5A8, 24 h.
Molecule `CNc1nc(NCc2ccc(NC(=O)c3ccc(Cl)cc3F)cc2)c2cc(C)ccc2n1` showed an IC50 above 2.78 µM.
For the molecule `Cc1ccc2nc(N(C)C)nc(NCc3ccc(NC(=O)c4ccc(F)cc4)cc3)c2c1`, the IC50 lay within 5.82 to 11.6 µM.
In turn, `Cc1cc(C)c2nc(N3CCN[C@@H](C)C3)nc(NCc3ccc(NC(=O)c4ccc(F)cc4)cc3)c2c1` had an IC50 above 5.01 µM.
In the case of `CNc1nc(NCc2ccc(NC(=O)c3cccnc3)cc2)c2cc([N+](=O)[O-])ccc2n1` it was above 23.3 µM; in that of `Cc1ccc2c(NCc3ccc(NC(=O)C4CCN(Cc5ccccc5)CC4)cc3)nc(N3CCC3)nc2c1`, 9.6 to 17.3 µM; in that of `CNc1nc(NCc2ccc(NC(=O)c3ccc(Cl)nc3)cc2)c2cccc(C)c2n1`, 2.89 to 21.6 µM.

As a reminder, the IC50 is the concentration that inhibits the measured activity by half. Read a low IC50 as greater potency.
